The values that follow come from PubChem BioAssay (NCI).

Several values for one entry are separate records, joined by “and”; a condition that tells them apart may be missing. Equal entries are not always repeated.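 96-well plates; 48 h exposure; 5 concentrations. Endpoints by linear interpolation between flanking doses. Not reached: highest tested concentration assigned. GI50 marks 50% less growth. Definition used: TGI = concentration required for complete inhibition of growth.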

Among the test systems are T-47D breast; HOP-92 NSCLC; PC-3 prostate; IGROV1 ovarian; BT-549 breast; MCF7 breast.
Experiment in all cases: DTP human tumour cell line panel, 48 h

As a reminder, the GI50 is the concentration at which growth is held to half of that of the control. By TGI is commonly meant the concentration giving total growth inhibition. Read a high TGI as lower sensitivity of the cells.

Turning to `COC(=O)/C=C1\SC(=Nc2ccc(C(F)(F)F)cc2)N(CCc2c[nH]c3ccccc23)C1=O`, the GI50 is 1.19 µM in the assay with T-47D breast; 1.58 µM in the assay with HOP-92 NSCLC; 1.62 µM with PC-3 prostate; 1.82 µM in the assay with IGROV1 ovarian; 1.53 µM in the assay on BT-549 breast; 1.16 µM in the assay with MCF7 breast. Besides, the TGI came to 3.17 µM in the assay with T-47D breast; 3.24 µM in the assay on HOP-92 NSCLC; 3.32 µM in the assay on PC-3 prostate; 3.59 µM with IGROV1 ovarian; 3.16 µM in the assay with BT-549 breast; 4.53 µM in the assay with MCF7 breast.
Regarding `O=C(CSc1nc2ccc([N+](=O)[O-])cc2[nH]1)Nc1cccc(C(F)(F)F)c1`, the GI50 in the assay on T-47D breast is 1.14 µM; in the assay on HOP-92 NSCLC, 0.3 µM; in the assay on PC-3 prostate it was 2.47 µM; in the assay with IGROV1 ovarian, 2.87 µM; in the assay on BT-549 breast, 2.63 µM; in the assay on MCF7 breast, 1.95 µM. Moreover, the TGI in the assay with T-47D breast is 11.8 µM; with HOP-92 NSCLC it was 2.82 µM; in the assay on PC-3 prostate it was 11.9 µM; in the assay with IGROV1 ovarian, 14.7 µM; with BT-549 breast it was 11.6 µM; with MCF7 breast, 9.44 µM.
On to `O=C1C(Cl)=C(Oc2ccccc2)C(=O)c2ccccc21`, for which the GI50 is 1.8 µM with HOP-92 NSCLC; 4.34 µM in the assay with PC-3 prostate; 2.96 µM with IGROV1 ovarian; 2.86 µM in the assay on BT-549 breast; 7.3 µM in the assay with MCF7 breast. The TGI in the assay with HOP-92 NSCLC was 4.56 µM; with PC-3 prostate, 20.9 µM; in the assay on IGROV1 ovarian, 9.63 µM; in the assay on BT-549 breast, 9.3 µM; in the assay on MCF7 breast, 25.2 µM.
In the case of `NCCCn1c2c(c3ccccc3c1=O)C(=O)c1cc3c(cc1-2)OCO3`, the GI50 was 0.407 µM in the assay with T-47D breast; 0.568 µM in the assay on HOP-92 NSCLC; 1.22 µM in the assay on PC-3 prostate; 0.374 µM in the assay with IGROV1 ovarian; less than 0.01 µM with BT-549 breast; 0.126 µM in the assay on MCF7 breast. The TGI in the assay with T-47D breast was 3.66 µM; with HOP-92 NSCLC, 15.9 µM; in the assay on PC-3 prostate, 7.41 µM; with IGROV1 ovarian it was 9.2 µM; with BT-549 breast, 1.77 µM; in the assay on MCF7 breast it was greater than 52.7 µM.
Take `c1ccc(Oc2c3ccccc3nc3ccccc23)cc1`: the GI50 was 2.81 µM in the assay on T-47D breast; 2.24 µM in the assay on HOP-92 NSCLC; 4.91 µM in the assay on PC-3 prostate; 4.31 µM with IGROV1 ovarian; 2.48 µM in the assay on MCF7 breast. Moreover, the TGI was determined as 10.9 µM with T-47D breast; 8.63 µM with HOP-92 NSCLC; 15.8 µM with PC-3 prostate; 15.8 µM with IGROV1 ovarian; 17.5 µM with MCF7 breast.
Regarding `COc1ccc(-c2nc3sccn3c2/C=C/C(=O)c2cc(OC)c(OC)c(OC)c2)cc1OC`, the GI50 in the assay on T-47D breast was 1.72 µM; in the assay on PC-3 prostate, 2.21 µM; in the assay on IGROV1 ovarian, 1.2 µM; with BT-549 breast it was 2.43 µM. The TGI in the assay with T-47D breast came to 5.83 µM; in the assay on PC-3 prostate, 6.96 µM; in the assay on IGROV1 ovarian it was 3.31 µM; in the assay on BT-549 breast, 7.95 µM.
`Cc1ccc(C)c(-n2c(-c3ccc(Br)cc3)csc2=NC(=O)c2ccccc2F)c1`: the values for the GI50 in the assay on PC-3 prostate, in the assay with IGROV1 ovarian and in the assay on BT-549 breast were 3.29 µM, greater than 100 µM and greater than 100 µM, respectively. Also, the TGI with PC-3 prostate, in the assay on IGROV1 ovarian and in the assay on BT-549 breast was greater than 100 µM throughout.
Turning to `O=C1NC(=O)[C@@H](c2cn3c4c(cccc24)CCC3)[C@@H]1c1c[nH]c2ccccc12`, the GI50 in the assay with T-47D breast is 0.456 µM and 0.625 µM; in the assay with HOP-92 NSCLC, 0.354 µM and 1.68 µM; with PC-3 prostate, 0.411 µM and 0.521 µM; in the assay with IGROV1 ovarian, 0.592 µM and 0.833 µM; in the assay with BT-549 breast, 0.522 µM and 1.1 µM; with MCF7 breast, 0.246 µM and 0.331 µM. In addition, the TGI was > 10 µM and 32.4 µM in the assay with T-47D breast; > 10 µM and 25.5 µM in the assay with HOP-92 NSCLC; > 10 µM and 37.4 µM in the assay with PC-3 prostate; > 10 µM and 23.2 µM with IGROV1 ovarian; > 10 µM and 17.7 µM in the assay on BT-549 breast; > 10 µM and 12.8 µM with MCF7 breast.
On to `Cn1cc(-c2nc(-c3c[nH]c4ncccc34)cs2)c2cc(Cl)ccc21`, for which the GI50 in the assay on T-47D breast is 0.0913 µM; in the assay with HOP-92 NSCLC it was 2.93 µM; in the assay on PC-3 prostate it was 3.62 µM; in the assay with IGROV1 ovarian, 4.54 µM; in the assay with BT-549 breast, 27.3 µM; with MCF7 breast, 1.16 µM. Also, the TGI is 23.6 µM in the assay on T-47D breast; 18.4 µM in the assay with HOP-92 NSCLC; greater than 100 µM in the assay on PC-3 prostate; greater than 100 µM in the assay on IGROV1 ovarian; greater than 100 µM in the assay with BT-549 breast; greater than 100 µM in the assay with MCF7 breast.
Turning to `CCOC(=O)c1[nH]c2cccc3c2c1CC(Br)C3=O` (configuration not stated), the TGI in the assay with T-47D breast came out at 40.9 µM; in the assay with HOP-92 NSCLC, 33.6 µM; in the assay with PC-3 prostate it was 33 µM; in the assay with IGROV1 ovarian it was 20.4 µM; in the assay on BT-549 breast, 32.1 µM; in the assay on MCF7 breast, 84.3 µM.
Take `Cc1c2ncccc2c(C)c2c1[nH]c1ccc(O)cc12`: the GI50 is 42.8 µM in the assay with T-47D breast; 7.27 µM and 5.01 µM with PC-3 prostate; 7.29 µM and 11.6 µM in the assay with IGROV1 ovarian; 5.95 µM and 8.58 µM in the assay with MCF7 breast. Also, the TGI with HOP-92 NSCLC was 17.3 µM; in the assay with PC-3 prostate, 13.7 µM and 12.2 µM; in the assay with IGROV1 ovarian, 21.5 µM and 102 µM; in the assay on BT-549 breast it was 29.3 µM; in the assay on MCF7 breast, 15.2 µM and 50 µM.
As for `O=C1CCCSCCCC(=O)CCCSCCC1`, the TGI with T-47D breast, in the assay with HOP-92 NSCLC, in the assay with PC-3 prostate, in the assay with IGROV1 ovarian, in the assay on BT-549 breast and with MCF7 breast was greater than 100 µM throughout.
Take `O=c1oc2ccccc2c(Cl)c1Cl`: the GI50 was 2.38 µM in the assay on T-47D breast; 5.71 µM in the assay with HOP-92 NSCLC; 7.51 µM with PC-3 prostate; 2.63 µM in the assay on BT-549 breast; 2.83 µM in the assay on MCF7 breast. Also, the TGI stood at 6.87 µM with T-47D breast; 18.6 µM with HOP-92 NSCLC; 24.5 µM in the assay with PC-3 prostate; 9.33 µM in the assay on BT-549 breast; 10.6 µM in the assay on MCF7 breast.
Regarding `COc1cc(-c2cc(C(=O)Nc3nc4ccccc4s3)nc3cc(-c4ccccc4)nn23)cc(OC)c1OC`, the GI50 was 21.4 µM in the assay with T-47D breast; 0.775 µM in the assay on HOP-92 NSCLC; greater than 100 µM in the assay on PC-3 prostate; 56.3 µM with IGROV1 ovarian; 6.33 µM in the assay with BT-549 breast; 22.4 µM in the assay on MCF7 breast. Further, the TGI in the assay on T-47D breast is greater than 100 µM; in the assay with HOP-92 NSCLC, 5.24 µM; in the assay with PC-3 prostate, greater than 100 µM; with IGROV1 ovarian, greater than 100 µM; with BT-549 breast it was 47 µM; with MCF7 breast, greater than 100 µM.
